The text below walks through data of US9265774B2, “Methods, compounds and pharmaceutical compositions for treating anxiety and mood disorders” (New York University, priority 2011, dated 2016).

In data set [1] the test system is locomotor behavior in an open field. Nature of the data set: Open field locomotor behavior after ivt. 6FNE or i.p. dp6FNE versus amphetamine. It counts as in vivo, mice. The note with it: 6FNE ivt. or dp6FNE i.p. On the procedure:
6FNE and dp6FNe were tested for their effects on motor activity by measuring locomotor behavior in an open field after either ivt. (6FNE) or i.p. injection (dp6fNE) in mice. These mice were compared to animals that were either non handled or received either a vehicle ivt injection or an i.p. injection of the stimulant, amphetamine (5 mg/kg). The results are shown in FIG. 6 and in (Stone, Lin Y, Sarfraz Y, and Quartermain D, 2011). […] Furthermore, the increase in activity after 6FNE was minor in comparison with the bona fide stimulant, amphetamine which produced a 10 fold increase. The small increase over the vehicle group therefore appears to be the result of a reduction of the stress caused by the handling and restraint for the ivt. injection which is in agreement with the reduced activation of brain stress circuits discussed above. This interpretation was supported by an examination of the time in the center or risky area of the field spent by the various groups. […] A slight reduction in motor behavior at the low doses (0.1-0.3 mg/kg) were, however, observed.

The subject of data set [2] is Fos expression in the PVH. The data set can be described thus: Fos expression in the PVH in the tail suspension test. Particulars: dp6FNE 3 mg/kg i.p. before a 6 min tail suspension test, with prazosin 0.2 mg/kg. The class given is in vivo, mice. On the procedure:
(§1) In the RFS study, mice were subjected to 4 daily 15 min swims as described above and were injected i.p. with either vehicle or dp6FNE (3 mg/kg) 15 min prior to the 5th swim. In the TST study, animals were injected similarly before a 6 min test. […] The animals were anesthetized and perfused for immuno-histochemistry 70 min after the start of the swim or tail suspension. Brains were processed as described previously for double-label immunofluorescent Fos/tyrosine hydroxylase staining of all sections through the LC and for single-label Fos staining through the full PVH (Stone et al., Brain Res (2009) 1291: 21-31). […] In the tail suspended mice the analogous reductions were 53.5±7.2% (LC) and 36.7±3.1 (PVH). […] These findings thus indicate that a dose of […] dp6FNE that has preferential inhibitory effects on the LC during depression exists.

The subject of a further data set is Fos expression in the LC. Nature of the data set: Fos expression in the LC in the tail suspension test. The class given is in vivo, mice. Particulars: dp6FNE 3 mg/kg i.p. before a 6 min tail suspension test, with prazosin 0.2 mg/kg. The procedure:
as §1

The conditions of data set [3]: prazosin: at 0.2 mg/kg in mice; cited from earlier work.
The subject of data set [4] is home cage exploration in handling-stressed mice. The data set can be described thus: Home cage activity after handling and injection stress. It counts as in vivo. Particulars: i.p.; dp6FNE (1 mg/kg) in the presence of phentolamine; cirazoline (0.1 mg/kg). On the procedure:
FIG. 15 depicts the effect of acute i.p. dp6FNE (1 mg/kg) or cirazoline (0.1 mg/kg), (N=1), on home cage activity in terms of rearing and ambulation, Veh (N=12).
6FNE has a more rapid and/or greater antidepressant effect than either of these agonists because 6FNE is the only known selective α-agonist that has full efficacy at all brain α-adrenoceptors and 6FNE works within minutes (Stone, et al. 2011) whereas cirazoline was given to mice over several months prior to testing in one model (forced swim test) in the above experiment by Doze et al, 2009. […] (Stone, E A, Lin Y, Quartermain, D, Unpublished results)
It is known that peripheral administration of α1-agonists without phentolamine impairs exploratory behavior in the open field (Yang, et al., J Pharmacol exp Ther 1990; 255: 1064-1070).

The test system of data set [5] is CMS reduction of intake of sweetened milk. Nature of the data set: Chronic mild stress (CMS)-anhedonia model, consumption of sweetened milk. The class given is in vivo. The note with it: acute i.p. dp6FNE.
Data set [6] deals with endotoxin-induced inhibition of the female urine sniffing test (FUST). Nature of the data set: Endotoxin (LPS)-induced anhedonia, female urine sniffing test (FUST). The class given is in vivo, mice. On the procedure:
To determine if dp6FNE would also be active in an anhedonia-based model of depression, the compound was tested for its ability to reverse an endotoxin-induced inhibition of the female urine sniffing test (FUST), a non-nutritive hedonic behavior, whose impairment by stress was recently validated as a model of depression in this species (Malkesman et al., Biol Psychiatry (2010) 67: 864-871) A non-nutritive rewarding behavior was used because dp6FNE, like most other acutely administered antidepressants, has initial anorexic effects that inhibit the consumption of sweet solutions (Currie et al., Brain Res (1998) 800: 62-68). […] The repeated forced swim (RFS) model could not be used for this test because it is not a severe enough stress to reliably produce anhedonia in this species (Stone et al., Pharmacol Biochem Behav (2008b) 91: 190-195).
Male mice were trained to sniff estrous urine (verified by vaginal smears) presented on cotton swabs in the home cage over 3 d and were matched on sniffing duration (proximity to the swab in a 3 min test) into control and depression groups. These groups were administered i.p. control solution (H2O) or lipopolysaccharide (LPS), 400 μg/kg, respectively, and were left undisturbed for 24 h, which is necessary for the initial sickness behavior, but not the anhedonia, to subside (Frenois et al., Psychoneuroendocrinology (2007) 32: 516-531).

Data set [7] relates to immobility in tail suspension test. Nature of the data set: Tail suspension test (TST). The class given is in vivo, mice. The procedure:
In the RFS study, mice were subjected to 4 daily 15 min swims as described above and were injected i.p. with either vehicle or dp6FNE (3 mg/kg) 15 min prior to the 5th swim. In the TST study, animals were injected similarly before a 6 min test. […] The animals were anesthetized and perfused for immuno-histochemistry 70 min after the start of the swim or tail suspension. Brains were processed as described previously for double-label immunofluorescent Fos/tyrosine hydroxylase staining of all sections through the LC and for single-label Fos staining through the full PVH (Stone et al., Brain Res (2009) 1291: 21-31).
To determine if dp6FNE was active in a more traditional test of antidepressant activity, it was given as above 15 min prior to a tail suspension test.
(§2) The first test involves an acute stress-induced model of depression (Steru, et al., Psychopharmacology 1985; 85: 367-370) whereas the second, a more prolonged, chronic depression that is more akin to chronic human depression (Stone, et al., Pharmacol Biochem Behav 2008; 91: 190-195).

Data set [8] deals with repeated open-space swim model. Nature of the data set: Repeated open-space (forced) swim test. Particulars: acute i.p., dp6FNE at 1, 3 and 10 mg/kg given along with phentolamine 5 mg/kg i.p. It counts as in vivo, mice.
Description: as §2

For data set [9], the system named is Fos expression in the PVH. The data set can be described thus: Fos expression in the PVH during the RFS model. It counts as in vivo, mice. Particulars: dp6FNE 3 mg/kg i.p. 15 min prior to the 5th swim, with prazosin 0.2 mg/kg; swum animals, versus vehicle. The procedure: as §1

Consider `CC(C)(C)C(=O)Oc1cc(F)c(C(O)CN)cc1OC(=O)C(C)(C)C` (stereo not drawn) [dp6FNE, dipivalyl-6-fluoronorepinephrine], for which the “effect on motor activity in the open field” value in data set [1] is given as “did not produce any stimulation of motor behavior”. Besides, the “time in the center of the field” value in [1] was “significant increase in the time in the center of the field”. Moreover, the “reduction in gene expression (Fos) in the PVH” value in data set [2] is listed as 36.7±3.1; in data set [9], 13.0±20.1%. In the data set with Fos expression in the LC, the “reduction in gene expression (Fos) in the LC” value is on record as 53.5±7.2%. The “passage of the blood brain barrier” value in data set [3] was “does pass the blood brain barrier”. The “behavioral inhibition in the home cage following handling and injection stress” value in [4] is listed as “rescue of home cage exploration”. Further, the “effect on CMS reduction of sweetened milk intake” value in data set [5] is given as “eliminates the CMS reduction of intake”. Further, the “effect on food intake (hypophagia)” value in data set [5] was “significant hypophagia”. The “change of time sniffing, Con vs LPS” value in data set [6] (dp6FNE (1 mg/kg) i.p. with prazosin 0.2 mg/kg, 15 min before test, 24 h after LPS 400 μg/kg) is “+4.6±1.4%”. Besides, the “effect on the FUST in the absence of endotoxin” value in [6] (dp6FNE i.p. with prazosin 0.2 mg/kg, control (H2O) animals) is given as “did not significantly affect the FUST”. For the same compound, the “immobility in tail suspension test” value in [7] (3 mg/kg i.p. with prazosin 0.2 mg/kg, 15 min prior to test) is “significant reduction of immobility”. The “antidepressant action in the tail suspension test” value in data set [7] (i.p. at doses of 1, 3 and 10 mg/kg, given along with phentolamine 5 mg/kg i.p.) is given as “significant antidepressant action”. Besides, the “acute effect in the repeated open-space swim test” value in data set [8] is recorded as “strong effect”; in [8] (listed as 6dpFNE), “significant antidepressant action”.
